Measured values from PubChem BioAssay AID256 (DTP/NCI, 2004).
Several values for one entry are separate records, joined by “and”; a condition that tells them apart may be missing. Identical values can stand only once. Inconclusive results and toxic doses are left out.

Test system: CD2F1 mice, L1210 leukemia ip, survival T/C
Test: NCI In Vivo Anticancer Drug Screen. Data for tumor model L1210 Leukemia (intraperitoneal) in CD2F1 (CDF1) mice
Settings: higher = longer survival
Procedure, shortened: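 Tumor-bearing mice (transplanted tumor) were split into treated and vehicle control groups, and the measured endpoint of each treated group was divided by that of its vehicle controls.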

[1] = endpoint: mean survival time, dose: 100.0 mg/kg/injection, schedule: Q04DX003 (ip), vehicle: saline with Tween-80
[2] = endpoint: mean survival time, dose: 200.0 mg/kg/injection, schedule: Q04DX003 (ip), vehicle: saline with Tween-80
[3] = endpoint: mean survival time, dose: 400.0 mg/kg/injection, schedule: Q04DX003 (ip), vehicle: saline with Tween-80
[4] = endpoint: mean survival time, dose: 100.0 mg/kg/injection, schedule: Q01DX009 (ip), vehicle: saline with Tween-80
[5] = endpoint: mean survival time, dose: 200.0 mg/kg/injection, schedule: Q01DX009 (ip), vehicle: saline with Tween-80
[6] = endpoint: mean survival time, dose: 400.0 mg/kg/injection, schedule: Q01DX009 (ip), vehicle: saline with Tween-80
[7] = endpoint: mean survival time, dose: 100.0 mg/kg/injection, schedule: Q01DX009 (ip), vehicle: saline
[8] = endpoint: mean survival time, dose: 200.0 mg/kg/injection, schedule: Q01DX009 (ip), vehicle: saline
[9] = endpoint: mean survival time, dose: 50.0 mg/kg/injection, schedule: Q01DX009 (ip), vehicle: saline with Tween-80
[10] = endpoint: mean survival time, dose: 100.0 mg/kg/injection, schedule: Q01DX001 (ip), vehicle: saline with Tween-80
[11] = endpoint: mean survival time, dose: 200.0 mg/kg/injection, schedule: Q01DX001 (ip), vehicle: saline with Tween-80
[12] = endpoint: mean survival time, dose: 400.0 mg/kg/injection, schedule: Q01DX001 (ip), vehicle: saline with Tween-80
[13] = endpoint: mean survival time, dose: 100.0 mg/kg/injection, schedule: Q04DX003 (ip), vehicle: saline
[14] = endpoint: mean survival time, dose: 200.0 mg/kg/injection, schedule: Q04DX003 (ip), vehicle: saline

CCCCCCCCCCCCCCCC[N+](C)(CCO)Cc1ccccc1 (stereo not given)
T/C (endpoint: mean survival time, dose: 3.13 mg/kg/injection, schedule: Q04DX002 (ip), vehicle: saline with Tween-80): 100 % of control
T/C (endpoint: mean survival time, dose: 6.25 mg/kg/injection, schedule: Q04DX002 (ip), vehicle: saline with Tween-80): 100 % of control
T/C (endpoint: mean survival time, dose: 12.5 mg/kg/injection, schedule: Q04DX002 (ip), vehicle: saline with Tween-80): 96 % of control

C1=Nc2c(ccc3ccccc23)CS1
T/C (endpoint: mean survival time, dose: 25.0 mg/kg/injection, schedule: Q04DX002 (ip), vehicle: other): 91 % of control
T/C (endpoint: mean survival time, dose: 50.0 mg/kg/injection, schedule: Q04DX002 (ip), vehicle: other): 95 % of control
T/C (endpoint: mean survival time, dose: 100.0 mg/kg/injection, schedule: Q04DX002 (ip), vehicle: other): 100 % of control

Cc1nc2c(c(-c3ccccc3)n1)Cc1ccccc1O2
T/C (endpoint: mean survival time, dose: 100.0 mg/kg/injection, schedule: Q01DX001 (ip), vehicle: saline): 98 % of control
T/C (endpoint: mean survival time, dose: 200.0 mg/kg/injection, schedule: Q01DX001 (ip), vehicle: saline): 98 % of control
T/C (endpoint: mean survival time, dose: 400.0 mg/kg/injection, schedule: Q01DX001 (ip), vehicle: saline): 101 % of control

CCCCS(=O)(=O)c1ccc(Cl)cc1
T/C [1]: 96 % of control
T/C [2]: 100 % of control
T/C [3]: 105 % of control

CC(NC(=O)OCc1ccccc1)C(=O)NCCC(=O)OCc1ccccc1 (stereo not given)
T/C [4]: 93 % of control
T/C [5]: 95 % of control
T/C [6]: 90 % of control

NC(=O)c1nn(C2OC(CO)C(O)C2O)c2ncnc(N)c12 (stereo not given)
T/C (endpoint: mean survival time, dose: 25.0 mg/kg/injection, schedule: Q01DX009 (ip), vehicle: Klucel (hydroxypropylcellulose) (HPC)): 207 % of control
T/C (endpoint: mean survival time, dose: 50.0 mg/kg/injection, schedule: Q01DX009 (ip), vehicle: Klucel (hydroxypropylcellulose) (HPC)): 200 % of control

CCC(C)(O)Cc1cnccn1 (stereo not given)
T/C [7]: 108 % of control
T/C [8]: 97 % of control
T/C (endpoint: mean survival time, dose: 400.0 mg/kg/injection, schedule: Q01DX009 (ip), vehicle: saline): 96 % of control

Nc1nc(/C=C(/O)c2ccccc2)c2ncn(C3OC(CO)C(O)C3O)c2n1 (stereo not given)
T/C (endpoint: mean survival time, dose: 12.5 mg/kg/injection, schedule: Q01DX005 (ip), vehicle: distilled water + Tween-80): 103 % of control
T/C (endpoint: mean survival time, dose: 12.5 mg/kg/injection, schedule: Q01DX009 (ip), vehicle: distilled water + Tween-80): 89 % of control
T/C (endpoint: mean survival time, dose: 25.0 mg/kg/injection, schedule: Q01DX005 (ip), vehicle: distilled water + Tween-80): 114 % of control and 115 % of control
T/C (endpoint: mean survival time, dose: 25.0 mg/kg/injection, schedule: Q01DX009 (ip), vehicle: distilled water + Tween-80): 89 % of control
T/C (endpoint: mean survival time, dose: 50.0 mg/kg/injection, schedule: Q01DX005 (ip), vehicle: distilled water + Tween-80): 120 % of control
T/C (endpoint: mean survival time, dose: 50.0 mg/kg/injection, schedule: Q01DX009 (ip), vehicle: distilled water + Tween-80): 92 % of control
T/C (endpoint: mean survival time, dose: 100.0 mg/kg/injection, schedule: Q01DX005 (ip), vehicle: distilled water + Tween-80): 160 % of control
T/C (endpoint: mean survival time, dose: 100.0 mg/kg/injection, schedule: Q01DX009 (ip), vehicle: distilled water + Tween-80): 102 % of control
T/C (endpoint: mean survival time, dose: 200.0 mg/kg/injection, schedule: Q01DX009 (ip), vehicle: distilled water + Tween-80): 103 % of control
T/C (endpoint: median survival time, dose: 12.5 mg/kg/injection, schedule: Q01DX009 (ip), vehicle: distilled water + Tween-80): 103 % of control
T/C (endpoint: median survival time, dose: 25.0 mg/kg/injection, schedule: Q01DX009 (ip), vehicle: distilled water + Tween-80): 107 % of control
T/C (endpoint: median survival time, dose: 50.0 mg/kg/injection, schedule: Q01DX009 (ip), vehicle: distilled water + Tween-80): 111 % of control
T/C (endpoint: median survival time, dose: 100.0 mg/kg/injection, schedule: Q01DX009 (ip), vehicle: distilled water + Tween-80): 113 % of control

Cn1cnc2ccc(Cl)cc21
T/C [9]: 102 % of control
T/C [4]: 98 % of control
T/C [5]: 95 % of control

C[S+]1C=Cc2ccccc2C1c1ccc(Cl)cc1 (stereo not given)
T/C (endpoint: mean survival time, dose: 12.5 mg/kg/injection, schedule: Q04DX002 (ip), vehicle: Klucel (hydroxypropylcellulose) (HPC)): 103 % of control
T/C (endpoint: mean survival time, dose: 25.0 mg/kg/injection, schedule: Q04DX002 (ip), vehicle: Klucel (hydroxypropylcellulose) (HPC)): 100 % of control
T/C (endpoint: mean survival time, dose: 50.0 mg/kg/injection, schedule: Q04DX002 (ip), vehicle: Klucel (hydroxypropylcellulose) (HPC)): 105 % of control

N#Cc1ccc(OCc2nc(N)nc(N)c2-c2ccc(Cl)c(Cl)c2)cc1
T/C [9]: 90 % of control
T/C [4]: 102 % of control
T/C [5]: 110 % of control

C=C(C)CSC#N
T/C (endpoint: mean survival time, dose: 25.0 mg/kg/injection, schedule: Q04DX003 (ip), vehicle: saline with Tween-80): 97 % of control
T/C (endpoint: mean survival time, dose: 50.0 mg/kg/injection, schedule: Q04DX003 (ip), vehicle: saline with Tween-80): 100 % of control
T/C [1]: 100 % of control and 107 % of control

O=S(=O)(NC1CCCC2C=CC=CC21)c1ccccc1 (stereo not given)
T/C [10]: 94 % of control
T/C [11]: 102 % of control
T/C [12]: 96 % of control

CCC1(c2ccccc2)C(=O)N(Cl)C(=O)N(Cl)C1=O
T/C (endpoint: mean survival time, dose: 25.0 mg/kg/injection, schedule: Q01DX001 (ip), vehicle: saline with Tween-80): 101 % of control
T/C (endpoint: mean survival time, dose: 50.0 mg/kg/injection, schedule: Q01DX001 (ip), vehicle: saline with Tween-80): 95 % of control
T/C [10]: 95 % of control and 100 % of control

COC1OC(CO)C(O)C(O)C1O (stereo not given) (tested in a mixture with another compound)
T/C [10]: 90 % of control
T/C [11]: 90 % of control
T/C [12]: 92 % of control

CCCCCCCCCCCCS(=O)(=O)O
T/C [1]: 119 % of control
T/C [2]: 119 % of control

O=C(Nc1ccc(C2=NCCN2)cc1)c1ccc(NC(=O)c2ccc(C3=NCCN3)cc2)cc1
T/C (endpoint: median survival time, dose: 30.0 mg/kg/injection, schedule: Q01DX009 (ip), vehicle: saline): 166 % of control
T/C (endpoint: median survival time, dose: 60.0 mg/kg/injection, schedule: Q01DX009 (ip), vehicle: saline): 244 % of control

CS(=O)(=O)c1cnccn1
T/C (endpoint: mean survival time, dose: 100.0 mg/kg/injection, schedule: Q04DX003 (ip), vehicle: saline sonified): 93 % of control
T/C (endpoint: mean survival time, dose: 200.0 mg/kg/injection, schedule: Q04DX003 (ip), vehicle: saline sonified): 95 % of control
T/C (endpoint: mean survival time, dose: 400.0 mg/kg/injection, schedule: Q04DX003 (ip), vehicle: saline sonified): 96 % of control

O=C1OC(c2ccc(Cl)cc2)=N/C1=C\c1ccccc1
T/C (endpoint: mean survival time, dose: 100.0 mg/kg/injection, schedule: Q01DX009 (ip), vehicle: acetone): 97 % of control
T/C (endpoint: mean survival time, dose: 200.0 mg/kg/injection, schedule: Q01DX009 (ip), vehicle: acetone): 101 % of control

CCCNCCN(CC)CC
T/C (endpoint: mean survival time, dose: 50.0 mg/kg/injection, schedule: Q01DX009 (ip), vehicle: saline): 96 % of control
T/C [7]: 93 % of control
T/C [13]: 100 % of control
T/C [8]: 96 % of control
T/C [14]: 96 % of control

NS(=O)(=O)c1ccc(N=Nc2ccc([As](=O)(O)O)cc2)cc1
T/C (endpoint: mean survival time, dose: 50.0 mg/kg/injection, schedule: Q04DX003 (ip), vehicle: saline): 104 % of control
T/C [13]: 101 % of control
T/C [14]: 101 % of control

N#CC(/C=C/c1ccccc1)Nc1ccc(CCc2ccc(NC(C#N)/C=C/c3ccccc3)cc2)cc1 (stereo not given)
T/C [4]: 94 % of control
T/C [5]: 90 % of control
T/C [6]: 100 % of control

CC(=O)NCN(C)N=O
T/C (endpoint: mean survival time, dose: 100.0 mg/kg/injection, schedule: Q04DX002 (ip), vehicle: saline): 91 % of control
T/C (endpoint: mean survival time, dose: 200.0 mg/kg/injection, schedule: Q04DX002 (ip), vehicle: saline): 91 % of control
T/C (endpoint: mean survival time, dose: 400.0 mg/kg/injection, schedule: Q04DX002 (ip), vehicle: saline): 91 % of control

CCOc1ccc2c(c1)c(CC(=O)O)c(C)n2C
T/C (endpoint: mean survival time, dose: 100.0 mg/kg/injection, schedule: Q01DX001 (ip), vehicle: other): 95 % of control
T/C (endpoint: mean survival time, dose: 200.0 mg/kg/injection, schedule: Q01DX001 (ip), vehicle: other): 98 % of control
T/C (endpoint: mean survival time, dose: 400.0 mg/kg/injection, schedule: Q01DX001 (ip), vehicle: other): 98 % of control

CCN(C(=O)CCl)c1ccccc1C
T/C [1]: 92 % of control
T/C [2]: 89 % of control

CCC(=O)c1ccccc1NC(C)=O
T/C [2]: 95 % of control
T/C [3]: 97 % of control

CC(C)NC(=O)NO
T/C (endpoint: mean survival time, dose: 4.0 mg/kg/injection, schedule: Q03HX024 (ip), vehicle: saline): 95 % of control
T/C (endpoint: mean survival time, dose: 8.0 mg/kg/injection, schedule: Q03HX024 (ip), vehicle: saline): 98 % of control
T/C (endpoint: mean survival time, dose: 16.0 mg/kg/injection, schedule: Q03HX024 (ip), vehicle: saline): 103 % of control
T/C (endpoint: mean survival time, dose: 32.0 mg/kg/injection, schedule: Q03HX024 (ip), vehicle: saline): 98 % of control
T/C (endpoint: mean survival time, dose: 62.0 mg/kg/injection, schedule: Q03HX024 (ip), vehicle: saline with Tween-80): 87 % of control
T/C (endpoint: mean survival time, dose: 64.0 mg/kg/injection, schedule: Q03HX024 (ip), vehicle: saline): 98 % of control
